# Assay results as given in patent US8686043B2, “Heterocyclic sulfonamides, uses and pharmaceutical compositions thereof” (Pfizer Inc., priority 2009, dated 2014).
# pEC50: −log10 of the molar value.
# Test system: AMPA receptors
# Test: AMPA ES Cell FLIPR Screen (AMPA Potentiator Assay)
# Assay type: cell-based, murine
# Conditions: ES cell-derived neurons, FLIPR (Fluo-4), 32 μM AMPA challenge; values marked * are the geometric mean of 2-5 EC50 determinations
# From the text: Growth and Maintenance of ES Cells
# Murine ES cell line E14, with a targeted mutation in the Sox1 gene and a neuroectodermal marker that offers G418 resistance when the Sox1 gene is expressed (Stem Cell Sciences, West Mains Road, Edinburgh, Scotland EH9 3JQ) may be used in all experiments. ES cells may be maintained undifferentiated as previously described (Methods For The Isolation And Maintenance Of Murine Embryonic Stem Cells; Roach-M-L, McNeish-J-D., Methods in Molecular Biology, 185, 1-16 (2002)). Briefly, ES cells may be grown in stem cell culture media comprising a base medium of Knockout™ D-MEM (Invitrogen 5791 Van Allen Way, Carlsbad, Calif. USA 92008), supplemented with 15% ES qualified Fetal Bovine Serum (FBS) (Invitrogen), 0.2 mM L-Glutamine (Invitrogen), 0.1 mM MEM non-essential amino acids (Invitrogen), 30 μg/ml Gentamicin […] (Invitrogen), 1000 U/ml ESGRO™ (CHEMICON International, Inc., 28820 Single Oak Drive, Temecula, Calif. 92590) and 0.1 mM 2-mercaptoethanol (Sigma, 3050 Spruce St., St. Louis, Mo. 63103). ES cells may then be plated on gelatin-coated dishes (BD Biosciences, 2350 Qume Drive, San Jose, Calif. 95131), wherein the media is changed daily and the cells dissociated with 0.05% Trypsin EDTA (Invitrogen) every other day.
# Neural In Vitro Differentiation of ES Cells
# Embryoid Body Formation: Prior to embryoid body (EB) formation the ES cells may be weaned from FBS onto Knockout Serum Replacement™ (KSR) (Invitrogen). To form EBs, ES cells may be dissociated into a single cell suspension, then 3×10^6 cells plated in bacteriology dishes (Nunc 4014) and grown as a suspension culture in NeuroEB-I medium that consisted of Knockout™ D-MEM (Invitrogen), supplemented with 10% KSR (Invitrogen), 0.2 mM L-Glutamine (Invitrogen), 0.1 mM MEM non-essential amino acids (Invitrogen), 30 μg/ml Gentamicin (Invitrogen), 1000 U/ml ESGRO™ (CHEMICON International, Inc.), 0.1 mM 2-mercaptoethanol (Sigma) and 150 ng/ml Transferrin (Invitrogen). The plates may then be put on a Stovall Belly Button™ shaker in an atmospheric oxygen incubator. The media may be changed on day 2 of EB formation with NeuroEB-I and on day 4 with NeuroEB-II (NeuroEB-I plus 1 μg/ml mNoggin (R&D Systems, 614 McKinley Place N.E. Minneapolis, Minn. 55413)
# Neuronal Precursor Selection and Expansion: On day 5 of EB formation, EBs may be dissociated with 0.05% Trypsin EDTA, and 4×10^6 cells/100 mm dish may then be plated on Laminin coated tissue culture dishes in NeuroEB-II-G418 medium that consisted of a base medium of a 1:1 mixture of D-MEM/F12 supplemented with N2 supplements and NeuroBasal Medium supplemented with B27(I ASSUME THIS IS THE VITAMIN) supplement and 0.1 mM L-Glutamine (all from Invitrogen). The base medium may then be supplemented with 10 ng/ml bFGF (Invitrogen), 1 μg/ml mNoggin, 500 ng/ml SHH-N (IS THIS SONIC HEDGEHOG FROM ProSpecBio Rehovot Science Park, P.O. BOX 398, Rehovot 76103, Israel), 100 ng/ml FGF-8b (R&D Systems), 1 μg/ml Laminin and 200 μg/ml G418 (Invitrogen) for selection of neuronal precursors expressing Sox-1. The plates may then be put in an incubator containing 2% oxygen and maintained in these conditions. During the 6-day selection period, the NeuroEB-II ([…]) media should be changed daily. On day 6, the surviving neuronal precursor foci may then be dissociated with 0.05% Trypsin EDTA and the cells plated at a density of 1.5×10^6 cells/100 mm Laminin coated dish in Neuroll ([…])-G418 medium. The cells may then be dissociated every other day for expansion, and prepared for cryopreservation at passage 3 or 4. The cryopreservation medium typically contains 50% KSR, 10% dimethyl sulfoxide (DMSO) (Sigma) and 40% Neurol([…])-G418 medium. Neuronal precursors may be cryopreserved at a concentration of 4×10^6 cells/ml and 1 ml/cryovial in a controlled rate freezer overnight then transferred to an ultra-low freezer or liquid nitrogen for long-term storage. […]
row,SMILES,pEC50
1,"CC(C)S(=O)(=O)N[C@H]1CCC[C@H]1Oc1ccc(-c2ccccc2C#N)cc1 [Example 5, N-{(1S,2R)-2-[(2′-cyanobiphenyl-4-yl)oxy]cyclopentyl}propane-2-sulfonamide]",6.27
2,"CC(C)S(=O)(=O)N[C@H]1CCC[C@H]1Oc1ccc(-c2ccc(C#N)s2)cc1 [Example 6, N-{(1S,2R)-2-[4-(5-cyano-2-thienyl)phenoxy]cyclopentyl}propane-2-sulfonamide]",5.81
3,"CC(C)S(=O)(=O)N[C@H]1CCCC[C@H]1Oc1ccc(-c2ccccc2C#N)cc1 [Example 7, N-{(1S,2R)-2-[(2′-cyanobiphenyl-4-yl)oxy]cyclohexyl}propane-2-sulfonamide]",6.80
4,"CC(C)S(=O)(=O)N[C@H]1COC[C@H]1Oc1ccc(-c2ccc(O)cc2)cc1 [Example 18, N-{(3S,4S)-4-[(4′-hydroxybiphenyl-4-yl)oxy]tetra hydrofuran-3-yl}propane-2-sulfonamide]",5.93
5,"CCOc1cc(F)ccc1-c1ccc(O[C@@H]2COC[C@@H]2NS(=O)(=O)C(C)C)cc1 [Example 19, N-{(3S,4S)-4-[(2′-ethoxy-4′-fluorobiphenyl-4-yl)oxy]tetra hydrofuran-3-yl}propane-2-sulfonamide]",6.61
6,"Cc1cc(F)ccc1-c1ccc(O[C@@H]2COC[C@@H]2NS(=O)(=O)C(C)C)cc1 [Example 20, N-{(3S,4S)-4-[(4′-fluoro-2′-methylbiphenyl-4-yl)oxy]tetra hydrofuran-3-yl}propane-2-sulfonamide]",6.14
7,"CC(C)S(=O)(=O)N[C@H]1COC[C@H]1Oc1ccc(-c2ccc(F)cc2F)cc1 [Example 21, N-{(3S,4S)-4-[(2′,4′-difluorobiphenyl-4-yl)oxy]tetra hydrofuran-3-yl}propane-2-sulfonamide]",6.62
8,"CC(C)S(=O)(=O)N[C@H]1COC[C@H]1Oc1ccc(-c2cncnc2)cc1 [Example 22, N-[(3S,4S)-4-(4-pyrimidin-5-ylphenoxy)tetrahydrofuran-3-yl]propane-2-sulfonamide]",6.06
9,"CCOc1ccccc1-c1ccc(O[C@@H]2CCC[C@@H]2NS(=O)(=O)C(C)C)cc1 [Example 25, N-{(1S,2R)-2-[(2′-ethoxybiphenyl-4-yl)oxy]cyclopentyl} propane-2-sulfonamide]",5.53
10,"CC(C)S(=O)(=O)N[C@H]1CCC[C@H]1Oc1ccc(-c2ccccc2)cc1 [Example 26, N-[(1S,2R)-2-(biphenyl-4-yloxy)cyclopentyl] propane-2-sulfonamide]",5.95
11,"CC(C)S(=O)(=O)N[C@H]1CCC[C@H]1Oc1ccc(N2CCCC2)cc1 [Example 27, N-[(1S,2R)-2-(4-pyrrolidin-1-ylphenoxy)cyclopentyl] propane-2-sulfonamide]",6.07
12,"CC(C)S(=O)(=O)N[C@H]1CCC[C@H]1Oc1ccc(-c2ccc(C(=O)O)cc2C#N)cc1 [Example 28, 2-cyano-4′-({(1R,2S)-2-[(isopropylsulfonyl)amino]cyclopentyl}oxy) biphenyl-4-carboxylic acid]",6.19
13,"CC(C)S(=O)(=O)N[C@H]1CCC[C@H]1Oc1ccc(-c2ccccc2)c(F)c1 [Example 29, N-{(1S,2R)-2-[(2-fluorobiphenyl-4-yl)oxy]cyclopentyl} propane-2-sulfonamide]",6.28
14,"CC(C)S(=O)(=O)N[C@H]1CCC[C@H]1Oc1ccc(-c2ccc(F)cc2C#N)c(F)c1 [Example 30, N-{(1S,2R)-2-[(2′-cyano-2,4′-difluorobiphenyl-4-yl)oxy]cyclopentyl}propane-2-sulfonamide]",6.46
15,"CCOc1ccccc1-c1ccc(O[C@@H]2CCC[C@@H]2NS(=O)(=O)C(C)C)cc1F [Example 31, N-{(1S,2R)-2-[(2′-ethoxy-2-fluorobiphenyl-4-yl)oxy]cyclopentyl} propane-2-sulfonamide]",6.49
16,"CC(C)S(=O)(=O)N[C@H]1CCC[C@H]1Oc1ccc(-c2ccc(C#N)s2)c(F)c1 [Example 32, N-{(1S,2R)-2-[4-(5-cyano-2-thienyl)-3-fluorophenoxy]cyclopentyl} propane-2-sulfonamide]",5.85
17,"CC(C)S(=O)(=O)N[C@H]1CCC[C@H]1Oc1ccc(-c2cccc(C(=O)NC3CC3)c2)c(F)c1 [Example 33, N-cyclopropyl-2′-fluoro-4′-({(1R,2S)-2-[(isopropylsulfonyl)amino]cyclopentyl}oxy) biphenyl-3-carboxamide]",6.21
18,"CC(C)S(=O)(=O)N[C@H]1CCC[C@H]1Oc1ccc(-c2ccc(CCNS(C)(=O)=O)cc2)c(F)c1 [Example 34, N-{(1S,2R)-2-[(2-fluoro-4′-{2-[(methylsulfonyl)amino]ethyl}biphenyl-4-yl)oxy]cyclopentyl} propane-2-sulfonamide]",5.49

# The next lines start with the values.
row,pEC50,SMILES
1,6.28,"CC(C)S(=O)(=O)N[C@H]1CCCC[C@H]1Oc1ccc(-c2ccccc2C#N)c(F)c1 [Example 35, N-{(1S,2R)-2-[(2′-cyano-2-fluorobiphenyl-4-yl)oxy]cyclohexyl} propane-2-sulfonamide]"
2,5.79,"CC(C)S(=O)(=O)N[C@H]1CCCC[C@H]1Oc1ccc(-c2ccc(F)cc2C#N)c(F)c1 [Example 36, N-{(1S,2R)-2-[(2′-cyano-2,4′-difluorobiphenyl-4-yl)oxy]cyclohexyl} propane-2-sulfonamide]"
3,5.76,"CC(C)S(=O)(=O)N[C@H]1CCCC[C@H]1Oc1ccc(-c2ccc(C#N)s2)c(F)c1 [Example 37, N-{(1S,2R)-2-[4-(5-cyano-2-thienyl)-3-fluorophenoxy]cyclohexyl} propane-2-sulfonamide]"
4,6.49,"CC(C)S(=O)(=O)N[C@H]1CCCC[C@H]1Oc1ccc(N2CCCC2)cc1 [Example 38, N-[(1S,2R)-2-(4-pyrrolidin-1-ylphenoxy)cyclohexyl] propane-2-sulfonamide]"
5,5.85,"CCOc1ccccc1-c1ccc(O[C@@H]2CCCC[C@@H]2NS(=O)(=O)C(C)C)cc1 [Example 39, N-{(1S,2R)-2-[(2′-ethoxybiphenyl-4-yl)oxy]cyclohexyl} propane-2-sulfonamide]"
6,6.83,"CC(C)S(=O)(=O)N[C@H]1CCCC[C@H]1Oc1ccc(-c2ccccc2OCC(F)(F)F)nc1 [Example 40, N-[(1S,2R)-2-({6-[2-(2,2,2-trifluoroethoxy)phenyl]pyridin-3-yl}oxy)cyclohexyl] propane-2-sulfonamide]"
7,6.48,"CC(C)S(=O)(=O)N[C@H]1CCCC[C@H]1Oc1ccc(-c2ccccc2OC(F)(F)F)nc1 [Example 41, N-[(1S,2R)-2-({6-[2-(trifluoromethoxy)phenyl]pyridin-3-yl}oxy)cyclohexyl] propane-2-sulfonamide]"
8,5.56,"CC(C)S(=O)(=O)N[C@H]1CCCC[C@H]1Oc1ccc(-c2ccc(C#N)s2)nc1 [Example 42, N-[(1S,2R)-2-{[6-(5-cyano-2-thienylpyridin)-3-yl]oxy}cyclohexyl] propane-2-sulfonamide]"
9,6.30,"CC(C)S(=O)(=O)N[C@H]1CCCC[C@H]1Oc1ccc(N2CCCCC2)cc1 [Example 54, N-[(1S,2R)-2-(4-piperidin-1-ylphenoxy)cyclohexyl]pro-pane-2-sulfonamide]"

# Same assay, conditions: title compound versus its enantiomer
row,SMILES,biological activity improved over that of its enantiomer [times]
1,"CC(C)S(=O)(=O)N[C@H]1CCCC[C@H]1Oc1ccc(-c2ccccc2C#N)cc1 [Example 7, N-{(1S,2R)-2-[(2′-cyanobiphenyl-4-yl)oxy]cyclohexyl}propane-2-sulfonamide]",> 150

# Same assay, conditions: title compound versus its enantiomer prepared from the (1R,2S) bromide
row,SMILES,potency compared with its enantiomer
1,"CC(C)S(=O)(=O)N[C@H]1CCC[C@H]1Oc1ccc(-c2ccccc2C#N)cc1 [Example 5, N-{(1S,2R)-2-[(2′-cyanobiphenyl-4-yl)oxy]cyclopentyl}propane-2-sulfonamide]",significantly more potent than its enantiomer
